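The compound was tested at five concentrations on cells cultured in 96-well plates, with a 48-hour exposure period. GI50 = concentration required for 50% inhibition of growth.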 Active and inactive are the calls of the source. Cut-off read from the data, not from the text of the source: active = GI50 up to about 1.1 µM and inactive = higher.
What was measured:
Test in all cases: NCI tumour cell line growth inhibition, 48 h
RPMI-8226 = test system: RPMI-8226
NCI-H23 = test system: NCI-H23
UACC-62 = test system: UACC-62
SR = test system: SR
HL-60 = test system: HL-60
HOP-18 = test system: HOP-18
KM12 = test system: KM12
OVCAR-5 = test system: OVCAR-5
K562 = test system: K562
HOP-62 = test system: HOP-62
NCI-H226 = test system: NCI-H226
HCT-116 = test system: HCT-116
Malme-3M = test system: Malme-3M
SK-OV-3 = test system: SK-OV-3
ACHN = test system: ACHN
786-0 = test system: 786-0
M14 = test system: M14
KM-20L2 = test system: KM-20L2
HCT-15 = test system: HCT-15
SK-MEL-2 = test system: SK-MEL-2
SF-539 = test system: SF-539
OVCAR-4 = test system: OVCAR-4
RXF 393 = test system: RXF 393
SF-295 = test system: SF-295
OVCAR-8 = test system: OVCAR-8
SF-268 = test system: SF-268
EKVX = test system: EKVX
HOP-92 = test system: HOP-92
LOX IMVI = test system: LOX IMVI
DLD-1 = test system: DLD-1
U-251 = test system: U-251
DMS-273 = test system: DMS-273
RXF 631 = test system: RXF 631
COLO 205 = test system: COLO 205
UACC-257 = test system: UACC-257
A498 = test system: A498
SK-MEL-5 = test system: SK-MEL-5
XF498 = test system: XF498
UO-31 = test system: UO-31
SNB-19 = test system: SNB-19
SK-MEL-28 = test system: SK-MEL-28
HCC 2998 = test system: HCC 2998
OVCAR-3 = test system: OVCAR-3
A549 = test system: A549
SN12C = test system: SN12C
HT-29 = test system: HT-29
IGROV-1 = test system: IGROV-1
NCI-H522 = test system: NCI-H522
CAKI-1 = test system: CAKI-1
MOLT-4 = test system: MOLT-4
TK-10 = test system: TK-10
CCRF-CEM = test system: CCRF-CEM
M19-MEL = test system: M19-MEL
LXFL 529 = test system: LXFL 529
DMS-114 = test system: DMS-114
SNB-75 = test system: SNB-75
NCI-H460 = test system: NCI-H460
SW-620 = test system: SW-620
SNB-78 = test system: SNB-78

## COC(=O)CCC(=O)CC(=O)C1=NS(=O)(=O)c2nc(S(N)(=O)=O)c(Cl)cc2N1
RPMI-8226
  GI50: > 100 µM (inactive)
NCI-H23
  GI50: > 100 µM (inactive)
UACC-62
  GI50: > 100 µM (inactive)
SR
  GI50: > 100 µM (inactive)
HL-60
  GI50: > 100 µM (inactive)
HOP-18
  GI50: > 100 µM (inactive)
KM12
  GI50: > 100 µM (inactive)
OVCAR-5
  GI50: > 100 µM (inactive)
K562
  GI50: > 100 µM (inactive)
HOP-62
  GI50: > 100 µM (inactive)
NCI-H226
  GI50: > 100 µM (inactive)
HCT-116
  GI50: > 100 µM (inactive)
Malme-3M
  GI50: > 100 µM (inactive)
SK-OV-3
  GI50: > 100 µM (inactive)
ACHN
  GI50: > 100 µM (inactive)
786-0
  GI50: > 10 µM (inactive)
M14
  GI50: > 100 µM (inactive)
KM-20L2
  GI50: 72.9 µM (inactive)
HCT-15
  GI50: > 100 µM
SK-MEL-2
  GI50: > 100 µM (inactive)
SF-539
  GI50: > 100 µM (inactive)
OVCAR-4
  GI50: > 100 µM (inactive)
RXF 393
  GI50: > 100 µM (inactive)
SF-295
  GI50: > 100 µM (inactive)
OVCAR-8
  GI50: > 100 µM (inactive)
SF-268
  GI50: > 100 µM (inactive)
EKVX
  GI50: > 100 µM (inactive)
HOP-92
  GI50: > 100 µM (inactive)
LOX IMVI
  GI50: 70.5 µM (inactive)
DLD-1
  GI50: > 100 µM (inactive)
U-251
  GI50: > 100 µM (inactive)
DMS-273
  GI50: 72.3 µM (inactive)
RXF 631
  GI50: > 100 µM (inactive)
COLO 205
  GI50: > 100 µM (inactive)
UACC-257
  GI50: > 100 µM (inactive)
A498
  GI50: > 100 µM (inactive)
SK-MEL-5
  GI50: > 100 µM (inactive)
XF498
  GI50: > 100 µM (inactive)
UO-31
  GI50: > 100 µM (inactive)
SNB-19
  GI50: > 100 µM (inactive)
SK-MEL-28
  GI50: > 100 µM (inactive)
HCC 2998
  GI50: > 100 µM (inactive)
OVCAR-3
  GI50: > 100 µM (inactive)
A549
  GI50: > 100 µM (inactive)
SN12C
  GI50: > 100 µM (inactive)
HT-29
  GI50: > 100 µM (inactive)
IGROV-1
  GI50: > 100 µM (inactive)
NCI-H522
  GI50: 64.3 µM (inactive)
CAKI-1
  GI50: > 100 µM (inactive)
MOLT-4
  GI50: > 100 µM (inactive)
TK-10
  GI50: > 100 µM (inactive)
CCRF-CEM
  GI50: 45 µM (inactive)
M19-MEL
  GI50: > 100 µM (inactive)
LXFL 529
  GI50: > 100 µM (inactive)
DMS-114
  GI50: > 100 µM (inactive)
SNB-75
  GI50: > 100 µM (inactive)
NCI-H460
  GI50: > 100 µM (inactive)

## CC(=O)Oc1cc2c(cc1OC(C)=O)C1(C)CCC2(C)c2cc(OC(C)=O)c(OC(C)=O)cc21
RPMI-8226
  GI50: 3.52 µM (inactive)
NCI-H23
  GI50: 43.2 µM (inactive)
UACC-62
  GI50: 13.2 µM (inactive)
HL-60
  GI50: 4.13 µM (inactive)
KM12
  GI50: 11.6 µM (inactive)
OVCAR-5
  GI50: 28.4 µM (inactive)
K562
  GI50: 5.6 µM (inactive)
HOP-62
  GI50: 21.6 µM (inactive)
Malme-3M
  GI50: 13 µM (inactive)
SK-OV-3
  GI50: 29.2 µM (inactive)
ACHN
  GI50: 26.1 µM (inactive)
786-0
  GI50: 15 µM (inactive)
M14
  GI50: 18.3 µM (inactive)
KM-20L2
  GI50: 26 µM (inactive)
HCT-15
  GI50: 6.92 µM
SK-MEL-2
  GI50: 16.7 µM (inactive)
OVCAR-4
  GI50: 14.4 µM (inactive)
RXF 393
  GI50: 40.7 µM (inactive)
SF-295
  GI50: 24.5 µM (inactive)
OVCAR-8
  GI50: 15 µM (inactive)
SF-268
  GI50: 19.2 µM (inactive)
EKVX
  GI50: 35.8 µM (inactive)
SW-620
  GI50: 7.73 µM (inactive)
HOP-92
  GI50: 6.9 µM (inactive)
LOX IMVI
  GI50: 12.6 µM (inactive)
DLD-1
  GI50: 17.7 µM (inactive)
DMS-273
  GI50: 19.4 µM (inactive)
RXF 631
  GI50: 23.2 µM (inactive)
COLO 205
  GI50: 51.4 µM (inactive)
UACC-257
  GI50: 11.3 µM (inactive)
SK-MEL-5
  GI50: 22.6 µM (inactive)
XF498
  GI50: 11.4 µM (inactive)
UO-31
  GI50: 23.4 µM (inactive)
SNB-19
  GI50: 4.75 µM (inactive)
SK-MEL-28
  GI50: 21.4 µM (inactive)
HCC 2998
  GI50: 25.1 µM (inactive)
OVCAR-3
  GI50: 10.2 µM (inactive)
A549
  GI50: 34 µM (inactive)
SN12C
  GI50: 40.3 µM (inactive)
HT-29
  GI50: 4.75 µM (inactive)
IGROV-1
  GI50: 26.7 µM (inactive)
NCI-H522
  GI50: 2.24 µM (inactive)
CAKI-1
  GI50: 8.55 µM (inactive)
MOLT-4
  GI50: 8.2 µM (inactive)
TK-10
  GI50: 26.5 µM (inactive)
CCRF-CEM
  GI50: 2.87 µM (inactive)
SNB-78
  GI50: 16 µM (inactive)
M19-MEL
  GI50: 9.04 µM (inactive)
LXFL 529
  GI50: 4.99 µM (inactive)
SNB-75
  GI50: 4.92 µM (inactive)
NCI-H460
  GI50: 20.8 µM (inactive)

## CC(=O)OC1COC(N2C(=O)/C(=N\Nc3ccc([N+](=O)[O-])cc3)c3cc(Br)c([N+](=O)[O-])cc32)C(OC(C)=O)C1OC(C)=O (stereo not drawn)
RPMI-8226
  GI50: > 100 µM (inactive)
NCI-H23
  GI50: 31.6 µM (inactive)
UACC-62
  GI50: 15.3 µM (inactive)
SR
  GI50: 98.9 µM (inactive)
HL-60
  GI50: 65.6 µM (inactive)
HOP-18
  GI50: > 100 µM (inactive)
KM12
  GI50: 27.9 µM (inactive)
OVCAR-5
  GI50: > 100 µM (inactive)
K562
  GI50: 41 µM (inactive)
HOP-62
  GI50: 38.5 µM (inactive)
NCI-H226
  GI50: > 100 µM (inactive)
HCT-116
  GI50: 44.6 µM (inactive)
Malme-3M
  GI50: > 100 µM (inactive)
SK-OV-3
  GI50: 40.6 µM (inactive)
ACHN
  GI50: 21.6 µM (inactive)
786-0
  GI50: 42 µM (inactive)
M14
  GI50: 55.8 µM (inactive)
KM-20L2
  GI50: 32.1 µM (inactive)
HCT-15
  GI50: 33 µM
SK-MEL-2
  GI50: > 100 µM (inactive)
SF-539
  GI50: 68.2 µM (inactive)
OVCAR-4
  GI50: 32.9 µM (inactive)
RXF 393
  GI50: 15.5 µM (inactive)
SF-295
  GI50: 21.4 µM (inactive)
OVCAR-8
  GI50: > 100 µM (inactive)
SF-268
  GI50: 26.4 µM (inactive)
EKVX
  GI50: 62.7 µM (inactive)
SW-620
  GI50: 46 µM (inactive)
HOP-92
  GI50: 8.26 µM (inactive)
LOX IMVI
  GI50: 51.1 µM (inactive)
DLD-1
  GI50: > 100 µM (inactive)
U-251
  GI50: 36.8 µM (inactive)
DMS-273
  GI50: 35.2 µM (inactive)
RXF 631
  GI50: 22.2 µM (inactive)
COLO 205
  GI50: > 100 µM (inactive)
UACC-257
  GI50: > 100 µM (inactive)
SK-MEL-5
  GI50: 24.1 µM (inactive)
XF498
  GI50: 32.8 µM (inactive)
SNB-19
  GI50: > 100 µM (inactive)
SK-MEL-28
  GI50: > 100 µM (inactive)
HCC 2998
  GI50: > 100 µM (inactive)
OVCAR-3
  GI50: > 100 µM (inactive)
A549
  GI50: > 100 µM (inactive)
SN12C
  GI50: > 100 µM (inactive)
HT-29
  GI50: 74.5 µM (inactive)
IGROV-1
  GI50: 26.2 µM (inactive)
NCI-H522
  GI50: 24.1 µM (inactive)
CAKI-1
  GI50: 50.4 µM (inactive)
MOLT-4
  GI50: > 100 µM (inactive)
TK-10
  GI50: > 100 µM (inactive)
CCRF-CEM
  GI50: 61.5 µM (inactive)
SNB-78
  GI50: 27.2 µM (inactive)
M19-MEL
  GI50: > 100 µM (inactive)
LXFL 529
  GI50: 21.8 µM (inactive)
NCI-H460
  GI50: > 100 µM (inactive)

Reference: ChEMBL document CHEMBL1201862, “PubChem BioAssay data set” (2004)
